Results taken from PMC7892954, “In vivo Pharmacokinetic Drug-Drug Interaction Studies Between Fedratinib and Antifungal Agents Based on a Newly Developed and Validated UPLC/MS-MS Method” (Frontiers in Pharmacology, 2021).
Read-outs that look alike come from different tables or passages of the source. Blank lines part the entries; values can stand above or below the compound they belong to.

What was measured:
[1] = Stability of fedratinib in rat plasma under different conditions (UPLC-MS/MS); format: in vitro ADME; conditions: for Stability RE (%): n = 5
Protocol: The stability of the analyte in rat plasma under various conditions at LQC and HQC concentration levels (n = 5) was assessed, which were subjected to at room temperature for about 2 h, in the auto-sampler for 6 h at 10 °C prior to analysis, three freeze-thaw cycles (−80 °C to room temperature), and also storage at −80 °C for 21 days. The stability results of this assay in rat plasma should be acceptable when five replicates of QC samples at LQC and HQC concentrations were evaluated and compared with the real concentrations.

[2] = DDI study: pharmacokinetics of fedratinib in rats with or without antifungal drugs; format: in vivo, Sprague-Dawley (SD) rats; conditions: for AUC(0-inf) / AUC(0-t) / Cmax / Tmax / half-life / CL/F / MRT last / MRT inf: male, Sprague-Dawley, rat, plasma, po, 40 mg/kg, 40 mg/kg fedratinib oral gavage, n = 6, Mean ± SD; for CL/F: read-out: CLz/F (converted); for MRT last: read-out: MRT0→t; for MRT inf: read-out: MRT0→∞
Text: The UPLC-MS/MS procedures were developed and validated to detect fedratinib concentration in plasma to support an investigational study in healthy male Sprague-Dawley (SD) rats (weighing 200 ± 20 g), which were purchased from Laboratory Animal Center of Wenzhou Medical University (Wenzhou, China). The protocols and procedures of the animal experiment were checked in accordance with the regulations defined by Wenzhou Medical University Animal Care and Use Committee (wydw 2018-0002). Before experiment, rats were housed in the environmentally controlled feeding room, and had free access to the water and food.
After 30 min, each rat was administered 40 mg/kg fedratinib by oral gavage. Then, at the time points of 0, 0.333, 0.667, 1, 2, 4, 6, 9, 12, 24, and 48 h, heparinized 1.5 ml polythene tubes were used to collect the blood samples with approximate volume of 0.3 ml. Subsequently, plasma sample (100 µL) was separated and gained after centrifugation of the whole blood samples at room temperature for 10 min with the speed of 4,000 g, and all the plasma samples were placed and held at −80 °C prior to analysis.
Drug and Statistics (DAS) 2.0 software (Shanghai University of Traditional Chinese Medicine, China) was used to analysis the main pharmacokinetic parameters of fedratinib in rats through non-compartmental approach. The comparisons of the main pharmacokinetic parameters of different groups were conducted in one-way analysis of variance equipped with the Dunnett’s test by Statistical Package for the Social Sciences (SPSS Inc., Chicago, IL, United States) version 17.0 software. In any case, if the value of p was below 0.05, it was deemed to be statistically significant.

[3] = set-up: method as in Ogasawara et al., 2020; conditions: a strong CYP3A4 inhibitor, ref Ogasawara et al., 2020; cited from earlier work
[4] = healthy volunteers, 2015, cited from earlier work
[5] = Group A: control (0.5% CMC-Na) 30 min before
[6] = Group B: 20 mg/kg isavuconazole 30 min before
[7] = Group C: 20 mg/kg posaconazole 30 min before
[8] = Group D: 20 mg/kg fluconazole 30 min before
[9] = Group E: 20 mg/kg itraconazole 30 min before
[10] = 20 mg/kg antifungal 30 min before 40 mg/kg fedratinib oral

Stability RE (%) ([1]; 1.5 ng/ml, Auto-sampler 10°C, 6 h): 8.3%
Stability RE (%) ([1]; 1.5 ng/ml, Room temperature, 2 h): 14.1%
Stability RE (%) ([1]; 1.5 ng/ml, Three freeze-thaw (−80 °C to room temperature)): −4.6%
Stability RE (%) ([1]; 1.5 ng/ml, −80°C, 21 days): 2.7%
Stability RE (%) ([1]; 400 ng/ml, Auto-sampler 10°C, 6 h): 11.4%
Stability RE (%) ([1]; 400 ng/ml, Room temperature, 2 h): 10.3%
Stability RE (%) ([1]; 400 ng/ml, Three freeze-thaw (−80 °C to room temperature)): 12.5%
Stability RE (%) ([1]; 400 ng/ml, −80°C, 21 days): 14.2%
Deviation from nominal concentrations (stability) ([1]; LQC and HQC, all four storage conditions): < 15%
Key pharmacokinetic parameters (AUC0→t, AUC0→∞, MRT0→t, MRT0→∞, t1/2, Tmax, CLz/F, Cmax) compared with control Group A ([2]; fedratinib co-administrated with posaconazole (Group C)): no significant differences
AUC(0-inf) [2, 5]: 2150 ± 396 ng·h/mL
AUC(0-t) [2, 5]: 2010 ± 309 ng·h/mL
Cmax [2, 5]: 101 ± 12.9 ng/mL
Tmax [2, 5]: 5.43 ± 0.98 h
half-life [2, 5]: 11.1 ± 2.72 h
CL/F [2, 5]: 320 mL/min/kg
MRT last [2, 5]: 14.4 ± 1.41 h
MRT inf [2, 5]: 15.6 ± 1.65 h
AUC(0-inf) [2, 6]: 2720 ± 427 ng·h/mL
AUC(0-t) [2, 6]: 2590 ± 406 ng·h/mL
Cmax [2, 6]: 123 ± 17.2 ng/mL
Tmax [2, 6]: 6.4 ± 1.34 h
half-life [2, 6]: 11.1 ± 2.9 h
CL/F [2, 6]: 247 mL/min/kg
MRT last [2, 6]: 14.9 ± 0.87 h
MRT inf [2, 6]: 15.5 ± 1.34 h
AUC(0-inf) [2, 7]: 2510 ± 260 ng·h/mL
AUC(0-t) [2, 7]: 2320 ± 202 ng·h/mL
Cmax [2, 7]: 98.1 ± 16.6 ng/mL
Tmax [2, 7]: 6 ± 1.08 h
half-life [2, 7]: 11.8 ± 2.9 h
CL/F [2, 7]: 277 mL/min/kg
MRT last [2, 7]: 14.3 ± 1.21 h
MRT inf [2, 7]: 14.6 ± 1.32 h
AUC(0-inf) [2, 8]: 3890 ± 680 ng·h/mL
AUC(0-t) [2, 8]: 3800 ± 653 ng·h/mL
Cmax [2, 8]: 232 ± 33.1 ng/mL
Tmax [2, 8]: 7.8 ± 1.64 h
half-life [2, 8]: 10.9 ± 2.38 h
CL/F [2, 8]: 176 mL/min/kg
MRT last [2, 8]: 13.4 ± 1.3 h
MRT inf [2, 8]: 13.9 ± 1.36 h
AUC(0-inf) [2, 9]: 3320 ± 383 ng·h/mL
AUC(0-t) [2, 9]: 3130 ± 317 ng·h/mL
Cmax [2, 9]: 187 ± 22.2 ng/mL
Tmax [2, 9]: 7.2 ± 1.64 h
half-life [2, 9]: 10.2 ± 3.39 h
CL/F [2, 9]: 204 mL/min/kg
MRT last [2, 9]: 14.5 ± 1.95 h
MRT inf [2, 9]: 15.2 ± 2.1 h
Structure (SMILES): Cc1cnc(Nc2ccc(OCCN3CCCC3)cc2)nc1Nc1cccc(S(=O)(=O)NC(C)(C)C)c1 [Fedratinib]
Effect of ketoconazole on systemic exposure of fedratinib [3]: increases the systemic exposure of fedratinib
Impact of pantoprazole on the pharmacokinetics of fedratinib ([4]; 40 mg pantoprazole once daily with a single dose of 500 mg fedratinib, ref Xu et al.): no significantly impact
Effect of intake of food on pharmacokinetics and bioavailability of fedratinib ([4]; ref Zhang et al.): slightly affect

Structure (SMILES): C[C@@H](c1nc(-c2ccc(C#N)cc2)cs1)[C@](O)(Cn1cncn1)c1cc(F)ccc1F [isavuconazole]
Inhibitory effect on fedratinib metabolism [2, 10]: inhibitory effect on fedratinib metabolism to a certain extent
Order of inhibitory effect on fedratinib metabolism [2, 10]: fluconazole > itraconazole > isavuconazole > posaconazole

Structure (SMILES): CCC(C)n1ncn(-c2ccc(N3CCN(c4ccc(OCC5COC(Cn6cncn6)(c6ccc(Cl)cc6Cl)O5)cc4)CC3)cc2)c1=O (stereo not drawn) [itraconazole]
Order of inhibitory effect on fedratinib metabolism [2, 10]: fluconazole > itraconazole > isavuconazole > posaconazole

Structure (SMILES): CC[C@@H]([C@H](C)O)n1ncn(-c2ccc(N3CCN(c4ccc(OC[C@@H]5CO[C@@](Cn6cncn6)(c6ccc(F)cc6F)C5)cc4)CC3)cc2)c1=O [posaconazole]
Order of inhibitory effect on fedratinib metabolism [2, 10]: fluconazole > itraconazole > isavuconazole > posaconazole
